Read-outs that look alike come from different tables or passages of the source.
Assays:
apo A-I [1] = test: Apo A-I synthesis by cultured cynomolgus (simian) hepatocytes, ELISA of medium; assay type: cell-based, cynomolgus monkey; conditions: culture period 48 h to 72 h
apo(a) [2] = test: Apo(a) synthesis by cultured cynomolgus (simian) hepatocytes, ELISA of medium; assay type: cell-based, cynomolgus monkey; conditions: culture period 48 h to 72 h
apo B-100 [3] = test: Apo B-100 synthesis by cultured cynomolgus (simian) hepatocytes, ELISA of medium; assay type: cell-based, cynomolgus monkey; conditions: culture period 48 h to 72 h
apo(a) [4] = test: Apo(a) synthesis by cultured human hepatocytes, ELISA of medium; assay type: cell-based; conditions: culture period 48 h to 72 h
apo B-100 [5] = test: Apo B-100 synthesis by cultured human hepatocytes, ELISA of medium; assay type: cell-based; conditions: culture period 48 h to 72 h
apo A-I [6] = test: Apo A-I synthesis by cultured human hepatocytes, ELISA of medium; assay type: cell-based; conditions: culture period 48 h to 72 h
apo A-I mRNA [7] = test: Apo A-I mRNA levels in human hepatocytes, RNA hybridization; assay type: cell-based; conditions: 100 μM, cultured 48 h
apo(a) mRNA [8] = test: Apo(a) mRNA levels in cynomolgus hepatocytes, RNA hybridization; assay type: cell-based, cynomolgus monkey; conditions: 100 μM, cultured 48 h
Description: (§1) Total RNA was isolated from cynomolgus hepatocytes, cultured for 48 h in the presence or absence of the compounds, by the method of Chomczynski & Sacchi (33). After washing the RNA pellets with 70% (v/v) ethanol, RNA samples were dissolved in water. The RNA concentration in each sample was determined spectrophotometrically, assuming that one A260 unit corresponds with 40 μg RNA/mL. Equal amounts of total RNA (10 μg) from different incubations were fractionated by, elcctrophoresis in a 0.8% (w/v) agarose gel containing 0.27 M formaldehyde, and transferred to Hybond-N+ (Amershamn) in accordance with the manufacturer's instructions and UV cross-linked. Probes, labelling conditions and hybridization were performed as described previously in detail (25).
(§2) Apo(a) mRNAs were detected using a kringle IV synthetic double-stranded probe of 75 nucleotides with the sense sequence: GGGAATTCGAACCTGCCAAGCTTGGTCATCTATGACACCACACTCGCATAGTCGGACCCC AGAATAAAGCTTGGG, based on the sequence published by McLean et al (34). This probe was labelled by the random primer method according to Megaprime™ DNA labelling systems (Amersham). After hybridization, the blots were washed twice with 2×SSC/1% SDS (1×SSC=0.15 mol/L NaCl/0.015 mol/L sodium citrate, pH 7.0) and twice with 1×SSC/1% SDS for 30 min at 65° C. The blots were exposed to a Fuji imaging plate type BAS-MP for 1 to 24 h. The relative amounts of mRNA were quantified using a phospho-imager (Fuji Fujix BAS 1000) and the computer programs BAS-reader version 2.8 and TINA version 2.08 c.
(§3) Data shown in table 2 are obtained from measurements using RNA isolated from hepatocytes cultured for 48 h with or without the compounds.

apo(a) mRNA [9] = test: Apo(a) mRNA levels in human hepatocytes, RNA hybridization; assay type: cell-based; conditions: 100 μM, cultured 48 h
Description: as §1, §2, §3

apo A-I mRNA [10] = test: Apo A-I mRNA levels in cynomolgus hepatocytes, RNA hybridization; assay type: cell-based, cynomolgus monkey; conditions: 100 μM, cultured 48 h
Description: as §1, §2, §3

lp(a) = conditions: cited from earlier work

With `COc1cc([C@@H]2OC[C@H](c3cc(OC)c(OC)c(OC)c3)O2)cc(OC)c1OC` (relative stereo) [Cisdioxolane, Cis-2,4-bis(3,4,5-trimethoxyphenyl)dioxolane, reference compound] the “Apo A-I synthesis” value (apo A-I [1]; 100 μM) was 229 ± 79 (2) % of control, the “Apo(a) synthesis” value (apo(a) [2]; 100 μM) was 83 ± 2 (3) % of control and the “Apo B-100 synthesis” value (apo B-100 [3]; 100 μM) was 99 ± 21 (3) % of control.
For `COc1cc([C@H]2CC[C@H](c3cc(OC)c(OC)c(OC)c3)O2)cc(OC)c1OC` (relative stereo) [L-652,731, Trans-2,5-bis(3,4,5-trimethoxyphenyl)tetrahydrofuran, reference compound], the “Apo A-I synthesis” value (apo A-I [1]; 100 μM) was 134 ± 1 (2) % of control, the “Apo(a) synthesis” value (apo(a) [2]; 100 μM) was 66 ± 8 (2) % of control and the “Apo B-100 synthesis” value (apo B-100 [3]; 100 μM) was 76 ± 35 (2) % of control.
In the case of `CCCCCCCCCCCCCCCCCCNC(=O)OC[C@@H]1CC[C@H](COP(=O)([O-])OCC[n+]2cccc3ccccc32)O1` (relative stereo) [SRI 63-441, O-cis-5-(octadecylcarbamoyloxymethyl)-2-tetrahydrofurylmethyl O-(2-quinolinio-ethyl) hydrogen phosphate, reference compound], the “Apo A-I synthesis” value (apo A-I [1]; 100 μM) is reported as 166 ± 6 (2) % of control, the “Apo(a) synthesis” value (apo(a) [2]; 100 μM) is reported as 24 ± 1 (2) % of control and the “Apo B-100 synthesis” value (apo B-100 [3]; 100 μM) is reported as 142 ± 32 (2) % of control.
For `COc1cc([C@@H]2OC[C@@H](c3cc(OC)c(OC)c(OC)c3)O2)cc(OC)c1OC` (relative stereo) [Transdioxolane, Trans-2,4-bis(3,4,5-trimethoxyphenyl)dioxolane, reference compound], the “Apo A-I synthesis” value (apo A-I [1]; 30 μM) was 116 ± 7 (3) % of control, the “Apo A-I synthesis” value (apo A-I [1]; 100 μM) was 157 ± 2 (3) % of control and the “Apo(a) synthesis” value (apo(a) [2]; 30 μM) was 103 ± 9 (3) % of control. The “Apo(a) synthesis” value (apo(a) [2]; 100 μM) was 60 ± 12 (3) % of control, the “Apo B-100 synthesis” value (apo B-100 [3]; 30 μM) was 117 ± 23 (3) % of control and the “Apo B-100 synthesis” value (apo B-100 [3]; 100 μM) was 105 ± 7 (3) % of control.
With `Cc1nnc2n1-c1sccc1C(c1ccccc1)=NC2` [Azepine 1] the “Apo A-I synthesis” value (apo A-I [1]; 3 μM) was 152 ± 30 (2) % of control, the “Apo A-I synthesis” value (apo A-I [1]; 10 μM) was 185 ± 20 (6) % of control and the “Apo A-I synthesis” value (apo A-I [1]; 30 μM) was 225 ± 45 (6) % of control. The “Apo A-I synthesis” value (apo A-I [1]; 100 μM) was 367 ± 131 (6) % of control, the “Apo(a) synthesis” value (apo(a) [4]; 3 μM) was 75 (1) % of control and the “Apo(a) synthesis” value (apo(a) [4]; 10 μM) was 48 (1) % of control. The “Apo(a) synthesis” value (apo(a) [4]; 30 μM) was 24 (1) % of control, the “Apo(a) synthesis” value (apo(a) [4]; 100 μM) was 14 (1) % of control and the “Apo(a) synthesis” value (apo(a) [2]; 3 μM) was 85 ± 5 (2) % of control. The “Apo(a) synthesis” value (apo(a) [2]; 10 μM) was 76 ± 19 (6) % of control, the “Apo(a) synthesis” value (apo(a) [2]; 30 μM) was 48 ± 28 (6) % of control and the “Apo(a) synthesis” value (apo(a) [2]; 100 μM) was 34 ± 32 (6) % of control. For the same compound, the “Apo B-100 synthesis” value (apo B-100 [5]; 3 μM) was 83 ± 16 (2) % of control, the “Apo B-100 synthesis” value (apo B-100 [5]; 10 μM) was 112 ± 3 (2) % of control and the “Apo B-100 synthesis” value (apo B-100 [5]; 30 μM) was 109 ± 8 (2) % of control. For the same compound, the “Apo B-100 synthesis” value (apo B-100 [5]; 100 μM) was 114 ± 8 (2) % of control, the “Apo A-I synthesis” value (apo A-I [6]; 3 μM) was 164 ± 61 (2) % of control and the “Apo A-I synthesis” value (apo A-I [6]; 10 μM) was 283 ± 109 (2) % of control. For the same compound, the “Apo A-I synthesis” value (apo A-I [6]; 30 μM) was 622 ± 228 (2) % of control, the “Apo A-I synthesis” value (apo A-I [6]; 100 μM) was 721 ± 212 (2) % of control and the “Apo A-I mRNA levels relative to GAPDH” value (apo A-I mRNA [7]) was 111 (1) % of control. For the same compound, the “Apo A-I mRNA levels relative to actin” value (apo A-I mRNA [7]) was 203 (1) % of control, the “Apo A-I mRNA levels relative to rRNA” value (apo A-I mRNA [7]) was 308 (1) % of control and the “Apo(a) mRNA levels relative to GAPDH” value (apo(a) mRNA [8]) was 39 ± 4 (3) % of control. The “Apo(a) mRNA levels relative to actin” value (apo(a) mRNA [8]) was 86 ± 7 (3) % of control, the “Apo(a) mRNA levels relative to rRNA” value (apo(a) mRNA [8]) was 56 ± 12 (3) % of control and the “Apo B-100 synthesis” value (apo B-100 [3]; 3 μM) was 117 ± 10 (2) % of control. The “Apo B-100 synthesis” value (apo B-100 [3]; 10 μM) was 113 ± 20 (6) % of control, the “Apo B-100 synthesis” value (apo B-100 [3]; 30 μM) was 106 ± 27 (6) % of control and the “Apo B-100 synthesis” value (apo B-100 [3]; 100 μM) was 95 ± 23 (6) % of control. For the same compound, the “Apo(a) mRNA levels relative to GAPDH” value (apo(a) mRNA [9]) was 24 (1) % of control, the “Apo(a) mRNA levels relative to actin” value (apo(a) mRNA [9]) was 44 (1) % of control and the “Apo(a) mRNA levels relative to rRNA” value (apo(a) mRNA [9]) was 67 (1) % of control. For the same compound, the “Apo A-I mRNA levels relative to GAPDH” value (apo A-I mRNA [10]) was 147 ± 28 (3) % of control, the “Apo A-I mRNA levels relative to actin” value (apo A-I mRNA [10]) was 328 ± 7 (3) % of control and the “Apo A-I mRNA levels relative to rRNA” value (apo A-I mRNA [10]) was 229 ± 8 (3) % of control.
With `c1ccc(C2=NCc3nncn3-c3sccc32)cc1` [Azepine 2] the “Apo A-I synthesis” value (apo A-I [1]; 30 μM) was 178 (1) % of control and the “Apo(a) synthesis” value (apo(a) [2]; 30 μM) was “no change”.
With `Cc1nnc2n1-c1ccc(Cl)cc1C(c1ccccc1)=NC2C` (stereo not shown) [Azepine 3] the “Apo A-I synthesis” value (apo A-I [1]; 100 μM) was 359 ± 74 (3) % of control, the “Apo(a) synthesis” value (apo(a) [2]; 100 μM) was 42 ± 20 (3) % of control and the “Apo B-100 synthesis” value (apo B-100 [3]; 100 μM) was 102 ± 32 (2) % of control.
For `Brc1nnc2n1-c1ccccc1C(c1ccccc1)=NC2` [Azepine 4], the “Apo A-I synthesis” value (apo A-I [1]; 100 μM) was 390 ± 40 (2) % of control, the “Apo(a) synthesis” value (apo(a) [2]; 100 μM) was 62 ± 22 (2) % of control and the “Apo B-100 synthesis” value (apo B-100 [3]; 100 μM) was 95 ± 23 (2) % of control.
In the case of `CC1C(=O)OC2C(O)C34C5CC(C(C)(C)C)C36C(OC(=O)C6O)OC4(C(=O)O5)C12O` (stereo not shown) [BN 52051, Ginkgolide B, reference compound], the “Apo A-I synthesis” value (apo A-I [1]; 100 μM) is reported as 144 ± 34 (2) % of control, the “Apo(a) synthesis” value (apo(a) [2]; 100 μM) is reported as 101 ± 1 (2) % of control and the “Apo B-100 synthesis” value (apo B-100 [3]; 100 μM) is reported as 113 ± 34 (2) % of control.
In the case of `O=C(O)c1cccnc1` [nicotinic acid], the “Reduction of plasma levels of lp(a)” value (lp(a); alone (4 g/day)) is given as roughly 38% and the “Reduction of plasma levels of lp(a)” value (lp(a); in combination with neomycine (3 g/day and 2 g/day respectively)) is given as roughly 45%.

— patent US6444664B1, “Method for controlling the plasma level of lipoproteins to treat alzheimeris disease” (Nederlandse Organisatie voor Toegepast - Natuurweten …, priority 1997, dated 2002)
